Measured values from patent publication US12697319B2, “Methods for inhibiting the progression of neurodegenerative diseases” (BioJiva LLC, priority 2021, dated 2026).
Where two headings read alike, the source gives them in different places.

How the values were obtained:
murine fibroblasts = conditions: fold vs D2-AA; erastin-treated murine fibroblasts
Method: In this example, two different pools of cells were each seeded in 48-well plates and treated with 50 micromolar of erastin.
Afterwards, cell viability was measured by plate dilution assay to distinguish between cells that are alive and those that are dead on a Petri dish.

[1] = Concentration of D2-LA and D2-AA in RBCs of the same single patient (Example 1); conditions: extrapolated from the 3 and 6 month values
From the text: This example determines the relative concentration of D2-AA in the CSF and in RBCs in order to determine a correlation between these two concentrations. Specifically, a patient was continuously provided with a daily dose of 9 grams of D2-LA ethyl ester (which is 8.64 grams of active discounting for impurities and removal of the ethyl ester) over about a six-month period. […] In all cases, the D2-AA was obtained by deacylation of the ethyl ester of linoleic acid in the gastrointestinal tract followed by conversion of D2-LA in vivo to D2-AA.

[2] = for Concentration of D2-AA in the RBCs, high: highest of cohort; for Concentration of D2-AA in the RBCs, low: lowest of cohort
Method: In this example, children suffering from INAD were treated with a daily dose of 3.9 grams of D2-LA ethyl ester followed by 2.9 grams of D2-LA ethyl ester. Given the age and weight of these children, such is assumed to be substantially equivalent to a loading dose of from about 7 and about 12 grams per day for an adult patient for an adult patient and a maintenance dose which is less than the loading dose again for an adult patient.
This example also determines the concentration of D2-AA in RBCs. Specifically, a cohort of 14 children was provided with a daily dose of 3.9 grams of D2-LA ethyl ester for 1 month followed by 2.9 grams of D2-LA ethyl ester for the remaining six-month period. Blood samples were taken at 3 months for all but 1 child and at 6 months for all children. The concentration of D2-AA in RBCs was measured.

patients with ALS = experiment: ALSFRS-R functional decline in cohort of 3 ALS patients on primer plus maintenance dosing of D2-LA ethyl ester (Example 3); assay type: in vivo, human; conditions: about 9 grams daily for at least 30 days then 5 grams, natural history 21
Method: As set forth in the examples below, the rate of functional decline is predicated on measuring an individual's, or a cohort's, average for the natural history of disease progression. Next, the individual or cohort average for the functional decline is determined at a period of time such as at 3, 6 or 12 months after initiation of therapy. The rate of decline based on the average of the natural history of the cohort is set as the denominator. The numerator is set as the delta between the rate of the natural history of disease progression and the rate of functional decline after a set period of treatment per this invention. The resulting fraction is the multiplied by 100 to give a percent change. The following exemplifies this analysis. […]
The functionality of each of the patients was evaluated periodically using the ALSFRS-R protocol. […] Before initiation of therapy, the natural history of each patient in the cohort was determined and an average annual rate of functional decline was measured at 21.
The annualized progression of the disease, as measured by an average annual rate of functional decline for all three patients starting at the time that dosing began and terminating at the end of the dosing regimen and then annualized as described above, was measured as 2.1. […]

With `[2H]C([2H])(/C=C\CCCCC)/C=C\C([2H])([2H])/C=C\C([2H])([2H])/C=C\CCCC(=O)O` the “Level of protection against LPO induced cell death relative to 13,13-D2-arachidonic acid” value (murine fibroblasts) was “approximately twice”.
In the case of `[2H]C([2H])(/C=C\C/C=C\C/C=C\CCCC(=O)O)/C=C\CCCCC` [D2-AA, 13,13-D2-Arachidonic Acid], the “Amount of D2-AA at 1 month in RBCs (estimated by linear extrapolation, FIG. 1)” value [1] is reported as “about 3%”, the “Concentration of D2-AA in the RBCs, high” value ([2]; 3 months) is reported as 16.8% and the “Concentration of D2-AA in the RBCs, low” value ([2]; 3 months) is reported as 6.8%. The “Concentration of D2-AA in the RBCs, high” value ([2]; 6 months) was 26.1% and the “Concentration of D2-AA in the RBCs, low” value ([2]; 6 months) was 12.0%.
In the case of `[2H]C([2H])(/C=C\CCCCC)/C=C\CCCCCCCC(=O)OCC` [D2-LA ethyl ester, 11,11-D2-linoleic acid ethyl ester], the “Average annual rate of functional decline during dosing (ALSFRS-R), annualized” value (patients with ALS) is reported as 2.1.
